For this test, the target named is 1,3-beta-glucan synthase (Candida albicans). As to the kind of experiment: In vitro inhibition of 1,3-beta-glucan synthase in Candida albicans membrane assay.

The values that follow come from BindingDB's records for doi:10.1016/S0960-894X(97)10107-X (1997).

Structures are written as SMILES. pIC50: −log10 of the molar value. A value given as a limit tells only on which side of the number the result lay.

A word on the pIC50: it is −log10 of the IC50, conventionally taken in molar units.

For the compound `CCC(C)CC(C)CCCCCCCCC(=O)N[C@@H]1C[C@@H](O)CNC(=O)[C@@H]2[C@@H](O)CCN2C(=O)[C@H]([C@@H](O)CC(N)=O)NC(=O)[C@H]([C@@H](O)Cc2ccc(O)c(N)c2)NC(=O)[C@@H]2C[C@@H](O)CN2C(=O)[C@H]([C@@H](C)O)NC1=O` (some centres undefined) [Pneumocandin analogue], the pIC50 was 7.30.

`CCC(C)CC(C)CCCCCCCCC(=O)N[C@@H]1C[C@@H](O)CNC(=O)[C@@H]2[C@@H](O)CCN2C(=O)[C@H]([C@@H](O)CC(N)=O)NC(=O)[C@H]([C@@H](O)Cc2ccc(O)cc2)NC(=O)[C@@H]2C[C@@H](O)CN2C(=O)[C@H]([C@@H](C)O)NC1=O` (some centres undefined) [Pneumocandin analogue] had a pIC50 of 7.15.

`CCC(C)CC(C)CCCCCCCCC(=O)N[C@@H]1C[C@@H](O)CNC(=O)[C@@H]2[C@@H](O)CCN2C(=O)[C@H]([C@@H](O)CC(N)=O)NC(=O)[C@H]([C@@H](O)Cc2ccc(O)c(CCN)c2)NC(=O)[C@@H]2C[C@@H](O)CN2C(=O)[C@H]([C@@H](C)O)NC1=O` (some centres undefined) [Pneumocandin analogue]: the pIC50 is 6.70.

Compound `CCC(C)CC(C)CCCCCCCCC(=O)N[C@@H]1C[C@@H](O)[C@@H](O)NC(=O)[C@@H]2[C@@H](O)CCN2C(=O)[C@H]([C@@H](O)CC(N)=O)NC(=O)[C@H]([C@@H](O)[C@H](O)c2ccc(O)c(I)c2)NC(=O)[C@@H]2C[C@@H](O)CN2C(=O)[C@H]([C@@H](C)O)NC1=O` (some centres undefined) [Pneumocandin analogue] showed a negative-log IC50 (pIC50) of 7.00.

`CCC(C)CC(C)CCCCCCCCC(=O)N[C@@H]1C[C@@H](O)CNC(=O)[C@@H]2[C@@H](O)CCN2C(=O)[C@H]([C@@H](O)CC(N)=O)NC(=O)[C@H]([C@@H](O)Cc2ccc(O)c([N+](=O)[O-])c2)NC(=O)[C@@H]2C[C@@H](O)CN2C(=O)[C@H]([C@@H](C)O)NC1=O` (some centres undefined) [Pneumocandin analogue] showed a negative-log IC50 (pIC50) of 5.40.

In turn, `CCC(C)CC(C)CCCCCCCCC(=O)N[C@@H]1C[C@@H](O)CNC(=O)[C@@H]2[C@@H](O)CCN2C(=O)[C@H]([C@@H](O)CC(N)=O)NC(=O)[C@H]([C@@H](O)Cc2ccc(O)c(I)c2)NC(=O)[C@@H]2C[C@@H](O)CN2C(=O)[C@H]([C@@H](C)O)NC1=O` (some centres undefined) [Pneumocandin analogue] gave a negative logarithm of the IC50 (pIC50) of 7.00.

`CCC(C)CC(C)CCCCCCCCC(=O)N[C@@H]1C[C@@H](O)[C@@H](O)NC(=O)[C@@H]2[C@@H](O)CCN2C(=O)[C@H]([C@@H](O)CC(N)=O)NC(=O)[C@H]([C@@H](O)[C@H](O)c2ccc(O)c(NC(=O)CCN)c2)NC(=O)[C@@H]2C[C@@H](O)CN2C(=O)[C@H]([C@@H](C)O)NC1=O` (some centres undefined) [Pneumocandin analogue] showed a negative-log IC50 (pIC50) of 7.15.

Regarding `CCC(C)CC(C)CCCCCCCCC(=O)N[C@@H]1C[C@@H](O)CNC(=O)[C@@H]2[C@@H](O)CCN2C(=O)[C@H]([C@@H](O)CC(N)=O)NC(=O)[C@H]([C@@H](O)Cc2ccc(O)c(C=O)c2)NC(=O)[C@@H]2C[C@@H](O)CN2C(=O)[C@H]([C@@H](C)O)NC1=O` (some centres undefined) [Pneumocandin analogue], the pIC50 is below 5.30.

Take `CCC(C)CC(C)CCCCCCCCC(=O)N[C@@H]1C[C@@H](O)CNC(=O)[C@@H]2[C@@H](O)CCN2C(=O)[C@H]([C@@H](O)CC(N)=O)NC(=O)[C@H]([C@@H](O)Cc2ccc(O)c(C(=O)OC)c2)NC(=O)[C@@H]2C[C@@H](O)CN2C(=O)[C@H]([C@@H](C)O)NC1=O` (some centres undefined) [Pneumocandin analogue]: the pIC50 was 5.52.

In turn, `C=Cc1cc(C[C@H](O)[C@@H]2NC(=O)[C@@H]3C[C@@H](O)CN3C(=O)[C@H]([C@@H](C)O)NC(=O)[C@H](NC(=O)CCCCCCCCC(C)CC(C)CC)C[C@@H](O)CNC(=O)[C@@H]3[C@@H](O)CCN3C(=O)[C@H]([C@@H](O)CC(N)=O)NC2=O)ccc1O` (some centres undefined) [Pneumocandin analogue] showed a pIC50 of 7.10.

In turn, `CCC(C)CC(C)CCCCCCCCC(=O)N[C@@H]1C[C@@H](O)[C@@H](O)NC(=O)[C@@H]2[C@@H](O)CCN2C(=O)[C@H]([C@@H](O)CC(N)=O)NC(=O)[C@H]([C@@H](O)[C@H](O)c2ccc(O)c(NC(=O)CCC(=O)O)c2)NC(=O)[C@@H]2C[C@@H](O)CN2C(=O)[C@H]([C@@H](C)O)NC1=O` (some centres undefined) [Pneumocandin analogue] gave a pIC50 of 6.82.

In turn, `CCC(C)CC(C)CCCCCCCCC(=O)N[C@@H]1C[C@@H](O)CNC(=O)[C@@H]2[C@@H](O)CCN2C(=O)[C@H]([C@@H](O)CC(N)=O)NC(=O)[C@H]([C@@H](O)Cc2ccc(O)c(/C=C/C(=O)OC)c2)NC(=O)[C@@H]2C[C@@H](O)CN2C(=O)[C@H]([C@@H](C)O)NC1=O` (some centres undefined) [Pneumocandin analogue] showed a pIC50 of 6.82.

In turn, `CCC(C)CC(C)CCCCCCCCC(=O)N[C@@H]1C[C@@H](O)CNC(=O)[C@@H]2[C@@H](O)CCN2C(=O)[C@H]([C@@H](O)CC(N)=O)NC(=O)[C@H]([C@@H](O)Cc2ccc(O)c(CCO)c2)NC(=O)[C@@H]2C[C@@H](O)CN2C(=O)[C@H]([C@@H](C)O)NC1=O` (some centres undefined) [Pneumocandin analogue] gave a pIC50 of 7.22.

As for `CCC(C)CC(C)CCCCCCCCC(=O)N[C@@H]1C[C@@H](O)[C@@H](O)NC(=O)[C@@H]2[C@@H](O)CCN2C(=O)[C@H]([C@@H](O)CC(N)=O)NC(=O)[C@H]([C@@H](O)[C@H](O)c2cc(I)c(O)c(I)c2)NC(=O)[C@@H]2C[C@@H](O)CN2C(=O)[C@H]([C@@H](C)O)NC1=O` (some centres undefined) [Pneumocandin analogue], the pIC50 is below 5.00.

Turning to `CCC(C)CC(C)CCCCCCCCC(=O)N[C@@H]1C[C@@H](O)[C@@H](O)NC(=O)[C@@H]2[C@@H](O)CCN2C(=O)[C@H]([C@@H](O)CC(N)=O)NC(=O)[C@H]([C@@H](O)[C@H](O)c2ccc(O)c(NC(=O)CN)c2)NC(=O)[C@@H]2C[C@@H](O)CN2C(=O)[C@H]([C@@H](C)O)NC1=O` (some centres undefined) [Pneumocandin analogue], the negative logarithm of the IC50 (pIC50) was 7.46.

`CCCc1cc(C[C@H](O)[C@@H]2NC(=O)[C@@H]3C[C@@H](O)CN3C(=O)[C@H]([C@@H](C)O)NC(=O)[C@H](NC(=O)CCCCCCCCC(C)CC(C)CC)C[C@@H](O)CNC(=O)[C@@H]3[C@@H](O)CCN3C(=O)[C@H]([C@@H](O)CC(N)=O)NC2=O)ccc1O` (some centres undefined) [Pneumocandin analogue] had a negative-log IC50 (pIC50) of 6.22.

`CCc1cc(C[C@H](O)[C@@H]2NC(=O)[C@@H]3C[C@@H](O)CN3C(=O)[C@H]([C@@H](C)O)NC(=O)[C@H](NC(=O)CCCCCCCCC(C)CC(C)CC)C[C@@H](O)CNC(=O)[C@@H]3[C@@H](O)CCN3C(=O)[C@H]([C@@H](O)CC(N)=O)NC2=O)ccc1O` (some centres undefined) [Pneumocandin analogue] gave a negative-log IC50 (pIC50) of 6.59.

Regarding `CCC(C)CC(C)CCCCCCCCC(=O)N[C@@H]1C[C@@H](O)[C@@H](O)NC(=O)[C@@H]2[C@@H](O)CCN2C(=O)[C@H]([C@@H](O)CC(N)=O)NC(=O)[C@H]([C@@H](O)[C@H](O)c2ccc(O)c(N)c2)NC(=O)[C@@H]2C[C@@H](O)CN2C(=O)[C@H]([C@@H](C)O)NC1=O` (some centres undefined) [Pneumocandin analogue], the pIC50 is 7.40.

Take `CCC(C)CC(C)CCCCCCCCC(=O)N[C@@H]1C[C@@H](O)[C@@H](O)NC(=O)[C@@H]2[C@@H](O)CCN2C(=O)[C@H]([C@@H](O)CC(N)=O)NC(=O)[C@H]([C@@H](O)[C@H](O)c2ccc(O)c([N+](=O)[O-])c2)NC(=O)[C@@H]2C[C@@H](O)CN2C(=O)[C@H]([C@@H](C)O)NC1=O` (some centres undefined) [Pneumocandin analogue]: the pIC50 was 5.54.
